Activity calls are given as the source filed them. No cut-off for these calls is given here.
What was measured:
Rattus norvegicus [1] = experiment: Antidiabetic activity in Wistar rat assessed as reduction in blood glucose level at 30 mg/kg, po dosed 30 mins before glucose challenge and measured 30 and 60 mins post glucose challenge by OGTT method; type: functional, organism-based
Rattus norvegicus [2] = experiment: Antidiabetic activity in STZ-induced diabetic Wistar rat model assessed as reduction in blood glucose level at 30 mg/kg, po repeated for 15 days by GOD-POD method; type: functional, organism-based
[3] = target: T1, Peroxisome proliferator-activated receptor gamma (Homo sapiens) (UniProt P37231); experiment: Agonist activity at PPARgamma (unknown origin) expressed in HEK293 cells assessed as receptor transactivation at 10 uM incubated for 24 hrs by luciferase reporter gene assay; type: cell-based
T1 sequence (whole entry): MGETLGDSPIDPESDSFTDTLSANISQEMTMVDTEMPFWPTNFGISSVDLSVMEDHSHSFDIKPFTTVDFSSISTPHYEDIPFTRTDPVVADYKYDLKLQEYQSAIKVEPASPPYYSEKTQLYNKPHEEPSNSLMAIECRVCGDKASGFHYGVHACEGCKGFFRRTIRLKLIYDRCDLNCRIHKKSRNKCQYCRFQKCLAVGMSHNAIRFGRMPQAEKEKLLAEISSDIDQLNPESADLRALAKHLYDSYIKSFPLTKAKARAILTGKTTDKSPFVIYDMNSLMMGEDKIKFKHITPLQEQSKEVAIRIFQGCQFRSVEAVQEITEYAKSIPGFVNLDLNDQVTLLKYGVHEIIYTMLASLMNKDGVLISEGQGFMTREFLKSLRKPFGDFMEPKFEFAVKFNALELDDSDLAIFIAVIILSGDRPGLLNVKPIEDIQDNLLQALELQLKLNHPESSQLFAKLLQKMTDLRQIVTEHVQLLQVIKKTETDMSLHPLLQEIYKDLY

Rattus norvegicus [4] = experiment: Toxicity in STZ-induced diabetic Wistar rat model assessed as increase in body weight at 30 mg/kg, po repeated for 15 days […]; type: organism-based; settings: in vivo, 360 h
3T3-L1 = experiment: Increase in PPARgamma mRNA expression in mouse 3T3L1 cells at 10 uM incubated for 24 hrs by RT-PCR method; type: functional
Rattus norvegicus [5] = experiment: Antidiabetic activity in Wistar rat assessed as reduction in blood glucose level at 36 mg/kg, po dosed 30 mins before glucose challenge and measured 30 and 60 mins post glucose challenge by OGTT method; type: functional, organism-based
Rattus norvegicus [6] = experiment: Antidiabetic activity in STZ-induced diabetic Wistar rat model assessed as reduction in blood glucose level at 36 mg/kg, po repeated for 15 days by GOD-POD method; type: functional, organism-based
Rattus norvegicus [7] = experiment: Toxicity in STZ-induced diabetic Wistar rat model assessed as increase in body weight at 36 mg/kg, po repeated for 15 days […]; type: organism-based; settings: in vivo, 360 h

| Structure (SMILES) | Activity [3] | Activity (Rattus norvegicus [1]) | Activity (Rattus norvegicus [2]) | Activity (Rattus norvegicus [4]) | fold change (FC) (3T3-L1) | Activity (Rattus norvegicus [5]) | Activity (Rattus norvegicus [6]) | Activity (Rattus norvegicus [7]) |
| --- | --- | --- | --- | --- | --- | --- | --- | --- |
| COc1ccc(Cl)cc1C(=O)NCCc1ccc(S(=O)(=O)NC(=O)NC2CCCCC2)cc1 [GLYBURIDE] | Active | Active | Active | Toxic | 1.01 | – | – | – |
| COc1ccc(C2CC(c3ccco3)=NN2c2ccc(S(=O)(=O)NC(=O)Nc3ccccc3C)cc2)cc1 (stereo not given) | – | Active | – | – | – | – | – | – |
| CN(CCOc1ccc(CC2SC(=O)NC2=O)cc1)c1ccccn1 (stereo not given) [ROSIGLITAZONE] | Active | – | – | – | 1.52 | Active | Active | Toxic |
| COc1ccc(NC(=S)NS(=O)(=O)c2ccc(N3N=C(c4ccco4)CC3c3ccc(N(C)C)cc3)cc2)cc1 (stereo not given) | – | Active | – | – | – | – | – | – |
| COc1ccc(NC(=O)NS(=O)(=O)c2ccc(N3N=C(c4ccco4)CC3c3ccc(N(C)C)cc3)cc2)cc1 (stereo not given) | – | Active | – | – | – | – | – | – |
| CN(C)c1ccc(C2CC(c3ccco3)=NN2c2ccc(S(=O)(=O)NC(=O)NCc3ccccc3)cc2)cc1 (stereo not given) | Active | Active | Active | Non-toxic | – | – | – | – |

Now from value to compound, other results behind:

| Activity [3] | Structure (SMILES) | Activity (Rattus norvegicus [1]) | Activity (Rattus norvegicus [2]) | Activity (Rattus norvegicus [4]) | fold change (FC) (3T3-L1) | Activity (Rattus norvegicus [5]) | Activity (Rattus norvegicus [6]) | Activity (Rattus norvegicus [7]) |
| --- | --- | --- | --- | --- | --- | --- | --- | --- |
| Active | Cc1ccccc1NC(=O)NS(=O)(=O)c1ccc(N2N=C(c3ccco3)CC2c2ccc(N(C)C)cc2)cc1 (stereo not given) | Active | Active | Non-toxic | – | – | – | – |
| Active | COc1ccc(C2CC(c3cc4ccccc4oc3=O)=NN2c2ccc(S(=O)(=O)NC(=S)NCc3ccccc3)cc2)cc1 (stereo not given) | Active | Active | Non-toxic | – | – | – | – |
| Active | Cc1ccccc1NC(=O)NS(=O)(=O)c1ccc(N2N=C(c3cc4ccccc4oc3=O)CC2c2ccc(N(C)C)cc2)cc1 (stereo not given) | Active | Active | Non-toxic | 1.13 | – | – | – |

Reference: ChEMBL document CHEMBL3621178, “Antidiabetic effect of novel benzenesulfonylureas as PPAR-γ agonists and their anticancer effect” (Bioorg Med Chem Lett, 2015)
